For orientation: DC50 means the concentration at which degradation of the target reaches its halfway point.

SMILES strings stand for the structures. A value given as a limit tells only on which side of the number the result lay.

In this assay the target is T1, KRAS (G12D) (Homo sapiens, UniProt P01116, G12D).
T1 construct: in-cell western with KRAS G12D antibody after 24 h
T1 sequence (P01116 1-188 isoform P01116-2 G12D): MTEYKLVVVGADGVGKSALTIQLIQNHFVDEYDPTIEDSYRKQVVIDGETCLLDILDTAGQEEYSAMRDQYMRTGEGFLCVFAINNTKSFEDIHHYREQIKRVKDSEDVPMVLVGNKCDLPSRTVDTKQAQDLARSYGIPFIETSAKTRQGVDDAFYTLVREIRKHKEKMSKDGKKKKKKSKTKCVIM
The assay is described as follows: KRAS (G12D) cellular degradation assay in AsPC-1 cells. The note with it: 24 hours, antibody fluorescence (Odyssey CLX), DC50 half-maximal degradation concentration. The assay is classed as cell-based. Here is the method: ASPC-1 and PK-59 cellular assays ASPC-1 (ATCC cat. CRL-1682) and PK-59 (Nanjing Cobioer, Cat. No. CBP61184) were used in KRAS cellular degradation, pERK inhibition and proliferation assays. The two cell lines were maintained following vendor's instructions. For monitoring KRAS (G12D) cellular degradation and pERK biomarker inhibition, cells were seeded into a 96-well plate with 22,000 and 16,000 cells/well for assays in ASPC-1 and PK-59, respectively. Cells were incubated at 37° C. with 5% CO2 and cell density was monitored until ^~90% confluency was reached. Compounds were serially diluted at a 1:3 ratio and dispensed into each well at final concentrations ranging from […] to 1.5 nM. After incubation for 24 hours, the culture media were removed and the cells were subjected to fixation, permeabilization and blocking (Intercept blocking buffer, Li-cor). For KRAS (G12D) degradation, the cells were treated with primary antibody (KRAS G12D antibody, Cell Signaling Technologies, Cat. No. CST14429) and for β-actin (β-actin mAb, Beyotime, Cat. No. AF-5001), and followed by secondary antibodies, Anti-rabbit IgG (H+L) (DyLight™ 800 4×PEG Conjugate) or IRDye® 680RD Goat anti-Mouse IgG. For pERK inhibition assay, cells were treated with primary antibodies for pERK (Phospho-p44/42 MAPK (Erk1/2) (Thr202/Tyr204) (D13.14.4E) XP® Rabbit mAb, Cell Signaling Technologies, Cat. No. CST-4370) and β-actin (β-actin mAb, Beyotime, Cat. No. AF-5001), and followed by secondary antibodies, Anti-rabbit IgG (H+L) (DyLight™ 800 4×PEG Conjugate) or IRDye® 680RD Goat anti-Mouse IgG. Fluorescence signals were read on Odyssey CLX instrument. For cell proliferation assays, cells were seeded into a 96-well plate at 3,500 and 800 cells/well for assays in ASPC-1 and PK-59, respectively. Cells were incubated at 37° C. with 5% CO2 for overnight. Compounds were serially diluted at a 1:3 ratio and dispensed into each well at final concentrations ranging from […] to 1.5 nM. After incubation for 6 days, cell viability reagent (CellTiter Glo, Promega, Cat. No. G7573) was added to each well and luminescence was recorded on Molecular Devices Spectramax iD3 instrument. IC50, half-maximal inhibitory concentration for pERK inhibition or cell proliferation, and DC50, half-maximal degradation concentration in KRAS (G12D) cellular degradation were determined by fitting the corresponding dose response curves using GraphPad Prism software.
Wherein “A” means the value <10 nM, “B” means 10 nM<the value <100 nM, “C” means 100 nM<the value <1000 nM, and “D” means the value >1000 nM, in which, the value means the value of DC50 or IC50. NT means not tested.
`CCn1nccc1-c1ccc([C@H](CO)NC(=O)[C@@H]2C[C@@H](O)CN2C(=O)[C@H](C(C)C)n2cc(-c3ccc(COc4c(-c5c(C)c(F)c(F)c6[nH]ncc56)c(C5CC5)cc5c(N6C[C@@H]7C[C@H]6CN7)nc(OC6CCC7(CC6)COC7)nc45)cc3)nn2)cc1` [Example 110, (2S,4R)-1-((2S)-2-(4-(4-(((2-((2-oxaspiro[3.5]nonan-7-yl)oxy)-4-((1S,4S)-2,5-diazabicyclo[2.2.1]heptan-2-yl)-6-cyclopropyl-7-(6,7-difluoro-5-methyl-1H-indazol-4-yl)quinazolin-8-yl)oxy)methyl)phenyl)-1H-1,2,3-triazol-1-yl)-3-methylbutanoyl)-N—((R)-1-(4-(1-ethyl-1H-pyrazol-5-yl)phenyl)-2-hydroxyethyl)-4-hydroxypyrrolidine-2-carboxamide] showed a 50% degradation concentration (DC50) of less than 10 nM.
With `CO[C@@H](C)COc1nc(N2C[C@@H]3C[C@H]2CN3)c2cc(C3CC3)c(-c3c(C)c(F)cc4[nH]ncc34)c(OCc3ccc(-c4cn([C@H](C(=O)N5C[C@H](O)C[C@H]5C(=O)N[C@H](C#Cc5cccc6sc(C)nc56)CO)C(C)C)nn4)cc3)c2n1` [Example 117, (2S,4R)-1-((2S)-2-(4-(4-(((4-((1S,4S)-2,5-diazabicyclo[2.2.1]heptan-2-yl)-6-cyclopropyl-7-(6-fluoro-5-methyl-1H-indazol-4-yl)-2-((S)-2-methoxypropoxy)quinazolin-8-yl)oxy)methyl)phenyl)-1H-1,2,3-triazol-1-yl)-3-methylbutanoyl)-4-hydroxy-N—((R)-1-hydroxy-4-(2-methylbenzo[d]thiazol-4-yl)but-3-yn-2-yl)pyrrolidine-2-carboxamide], the DC50 lay in the range of 10 to 100 nM.
Consider `CO[C@@H](C)COc1nc(N2C[C@@H]3C[C@H]2CN3)c2cc(C3CC3)c(-c3c(C)c(F)cc4[nH]ncc34)c(OCc3ccc(-c4cn([C@H](C(=O)N5C[C@H](O)C[C@H]5C(=O)N[C@H](C#Cc5cncc6ncsc56)CO)C(C)C)nn4)cc3)c2n1` [Example 118, (2S,4R)-1-((2S)-2-(4-(4-(((4-((1S,4S)-2,5-diazabicyclo[2.2.1]heptan-2-yl)-6-cyclopropyl-7-(6-fluoro-5-methyl-1H-indazol-4-yl)-2-((S)-2-methoxypropoxy)quinazolin-8-yl)oxy)methyl)phenyl)-1H-1,2,3-triazol-1-yl)-3-methylbutanoyl)-4-hydroxy-N—((R)-1-hydroxy-4-(thiazolo[4,5-c]pyridin-7-yl)but-3-yn-2-yl)pyrrolidine-2-carboxamide], for which the half-maximal degradation concentration (DC50) lay in the range of 10 to 100 nM.
For `Cc1ncsc1-c1ccc([C@H](CO)NC(=O)[C@@H]2C[C@@H](O)CN2C(=O)[C@H](C(C)C)n2cc(-c3ccc(COc4c(-c5c(C)c(F)c(F)c6[nH]ncc56)c(C5CCC5)cc5c(N6C[C@@H]7C[C@H]6CN7)nc(OC6CCOCC6)nc45)cc3)nn2)cc1` [Example 120, (2S,4R)-1-((2S)-2-(4-(4-(((4-((1S,4S)-2,5-diazabicyclo[2.2.1]heptan-2-yl)-6-cyclobutyl-7-(6,7-difluoro-5-methyl-1H-indazol-4-yl)-2-((tetrahydro-2H-pyran-4-yl)oxy)quinazolin-8-yl)oxy)methyl)phenyl)-1H-1,2,3-triazol-1-yl)-3-methylbutanoyl)-4-hydroxy-N—((R)-2-hydroxy-1-(4-(4-methylthiazol-5-yl)phenyl)ethyl)pyrrolidine-2-carboxamide], the DC50 fell in the range of 10 to 100 nM.
With `CO[C@@H](C)COc1nc(N2C[C@@H]3C[C@H]2CN3)c2cc(C3CC3)c(-c3c(C)c(F)cc4[nH]ncc34)c(OCc3ccc(-c4cn([C@H](C(=O)N5C[C@H](O)C[C@H]5C(=O)N[C@H](C#Cc5ccccc5)CO)C(C)C)nn4)cc3)c2n1` [Example 123, (2S,4R)-1-((2S)-2-(4-(4-(((4-((1S,4S)-2,5-diazabicyclo[2.2.1]heptan-2-yl)-6-cyclopropyl-7-(6-fluoro-5-methyl-1H-indazol-4-yl)-2-((S)-2-methoxypropoxy)quinazolin-8-yl)oxy)methyl)phenyl)-1H-1,2,3-triazol-1-yl)-3-methylbutanoyl)-4-hydroxy-N—((R)-1-hydroxy-4-phenylbut-3-yn-2-yl)pyrrolidine-2-carboxamide] the figure was 10 to 100 nM; with `CCn1nccc1-c1ccc([C@H](CO)NC(=O)[C@@H]2C[C@@H](O)CN2C(=O)[C@H](C(C)C)n2cc(-c3ccc(COc4c(-c5c(C)c(F)cc6[nH]ncc56)c(C5CC5)cc5c(N6C[C@@H]7C[C@H]6CN7)nc(N6CCC(OC)CC6)nc45)cc3)nn2)cc1` [Example 124, (2S,4R)-1-((2S)-2-(4-(4-(((4-((1S,4S)-2,5-diazabicyclo[2.2.1]heptan-2-yl)-6-cyclopropyl-7-(6-fluoro-5-methyl-1H-indazol-4-yl)-2-(4-methoxypiperidin-1-yl)quinazolin-8-yl)oxy)methyl)phenyl)-1H-1,2,3-triazol-1-yl)-3-methylbutanoyl)-N—((R)-1-(4-(1-ethyl-1H-pyrazol-5-yl)phenyl)-2-hydroxyethyl)-4-hydroxypyrrolidine-2-carboxamide], less than 10 nM.
On to `CCn1nccc1-c1ccc([C@H](CO)NC(=O)[C@@H]2C[C@@H](O)CN2C(=O)[C@H](C(C)C)n2cc(-c3ccc(COc4c(-c5c(C)c(F)cc6[nH]ncc56)c(C5CC5)cc5c(N6C[C@@H]7C[C@H]6CN7)nc(N6CCC(COC)C6)nc45)cc3)nn2)cc1` (stereo partly drawn) [Example 125, (2S,4R)-1-((2S)-2-(4-(4-(((4-((1S,4S)-2,5-diazabicyclo[2.2.1]heptan-2-yl)-6-cyclopropyl-7-(6-fluoro-5-methyl-1H-indazol-4-yl)-2-(3-(methoxymethyl)pyrrolidin-1-yl)quinazolin-8-yl)oxy)methyl)phenyl)-1H-1,2,3-triazol-1-yl)-3-methylbutanoyl)-N—((R)-1-(4-(1-ethyl-1H-pyrazol-5-yl)phenyl)-2-hydroxyethyl)-4-hydroxypyrrolidine-2-carboxamide], for which the DC50 fell in the range of 10 to 100 nM.
As to `CCn1nccc1-c1ccc([C@H](CO)NC(=O)[C@@H]2C[C@@H](O)CN2C(=O)[C@H](C(C)C)n2cc(-c3ccc(COc4c(-c5c(C)c(F)cc6[nH]ncc56)c(C5CC5)cc5c(N6C[C@@H]7C[C@H]6CN7)nc(N6CC(OC)C6)nc45)cc3)nn2)cc1` [Example 126, (2S,4R)-1-((2S)-2-(4-(4-(((4-((1S,4S)-2,5-diazabicyclo[2.2.1]heptan-2-yl)-6-cyclopropyl-7-(6-fluoro-5-methyl-1H-indazol-4-yl)-2-(3-methoxyazetidin-1-yl)quinazolin-8-yl)oxy)methyl)phenyl)-1H-1,2,3-triazol-1-yl)-3-methylbutanoyl)-N—((R)-1-(4-(1-ethyl-1H-pyrazol-5-yl)phenyl)-2-hydroxyethyl)-4-hydroxypyrrolidine-2-carboxamide], the DC50 fell in the range of 10 to 100 nM.
The figure for `CO[C@@H](C)COc1nc(N2C[C@@H]3C[C@H]2CN3)c2cc(C3CC3)c(-c3c(C)c(F)cc4[nH]ncc34)c(OCc3ccc(-c4cn([C@H](C(=O)N5C[C@H](O)C[C@H]5C(=O)N[C@H](C#Cc5cccc6c5cnn6C)CO)C(C)C)nn4)cc3)c2n1` [Example 134, (2S,4R)-1-((2S)-2-(4-(4-(((4-((1S,4S)-2,5-diazabicyclo[2.2.1]heptan-2-yl)-6-cyclopropyl-7-(6-fluoro-5-methyl-1H-indazol-4-yl)-2-((S)-2-methoxypropoxy)quinazolin-8-yl)oxy)methyl)phenyl)-1H-1,2,3-triazol-1-yl)-3-methylbutanoyl)-4-hydroxy-N—((R)-1-hydroxy-4-(1-methyl-1H-indazol-4-yl)but-3-yn-2-yl)pyrrolidine-2-carboxamide] is 10 to 100 nM; for `CCn1nccc1-c1ccc([C@H](CO)NC(=O)[C@@H]2C[C@@H](O)CN2C(=O)[C@H](C(C)C)n2cc(-c3ccc(COc4c(-c5c(C)c(F)cc6[nH]ncc56)c(C5CCC5)cc5c(N6C[C@@H]7C[C@H]6CN7)nc(OC6CCC7(CC6)COC7)nc45)cc3)nn2)cc1` [Example 137, (2S,4R)-1-((2S)-2-(4-(4-(((2-((2-oxaspiro[3.5]nonan-7-yl)oxy)-4-((1S,4S)-2,5-diazabicyclo[2.2.1]heptan-2-yl)-6-cyclobutyl-7-(6-fluoro-5-methyl-1H-indazol-4-yl)quinazolin-8-yl)oxy)methyl)phenyl)-1H-1,2,3-triazol-1-yl)-3-methylbutanoyl)-N—((R)-1-(4-(1-ethyl-1H-pyrazol-5-yl)phenyl)-2-hydroxyethyl)-4-hydroxypyrrolidine-2-carboxamide] it is less than 10 nM.

The record behind these values is patent US20260295053A1, “COMPOUNDS FOR DEGRADATION AND INHIBITION OF KRAS (G12D) PROTEIN” (Shenzhen Ionova Life Science Co., Ltd., priority 2023, published 2026).
